For 15 molecules, IC50 results are on record in patent US12215111B2, “Imidazopyridazine IL-17 inhibitor compounds” (Janssen Pharmaceutica NV, priority 2021, dated 2025).

For test [1], the target named is IL-17A(FLAG-Tagged): IL-17RA(His-Tagged) (Homo sapiens, UniProt Q16552, K93Q). Briefly: IL-17A(FLAG-tagged):IL-17RA(His-tagged) binding disruption Eu-HTRF assay, Protocol 2. The note with it: FLAG tagged IL-17A at 2× final concentration (1 nM); simple average if tested more than once. From the text:
IL-17A(FLAG-Tagged): IL-17RA(His-Tagged) Binding Disruption Eu-HTRF Assay
An antibody directed against the FLAG tag of IL-17A (SEQ ID NO:1) is labeled with the HTRF donor chromophore (Europium-cryptate). IL-17A is present as a dimer that is “locked into” this quaternary structure due to the formation of loop-spanning […] disulfide bridges. The construct of IL-17RA used in the assay excludes the outer-membrane portion of the receptor and is fused to a C-terminal 10×His tag (SEQ ID NO:2). An antibody directed against the His tag of the IL-17RA chimera is labeled with the HTRF acceptor chromophore (“D2”). The fluorescence-resonance energy transfer (FRET) depends on the vicinity of the donor chromophore to the acceptor, and interruption of the binding between the IL-17A and IL-17RA causes the reduction/loss of FRET. Therefore, this assay allows to evaluate the compound effect on the binding IL-17A and IL-17RA by monitoring the fluorescence intensity of donor vs acceptor. The assay was run using either Protocol 1 or Protocol 2 described below.
Protocol 2. 40 nl of 2-fold serial diluted compound solution for total 22 dilution points is added into each well of a 1536-well, white, low-volume, non-binding plate (Greiner #782904), then 2 μl of FLAG tagged IL-17A at 2× final concentration (1 nM) in solution of PBS+0.01% Triton-X100 is added to each well. The assay plate is briefly centrifuged then incubated for 1 h at rt. A mixed solution is prepared containing 2×5 nM 10HIS×IL-17RA, 2×2.5 nM Eu-anti-FLAG (CISBIO), 2×5 nM D2-anti-HIS (CISBIO) in PBS+0.01% Triton-X100+200 mM Potassium Fluoride (Sigma 60238) and […] of mix is added to each well of the assay plate. The plate is briefly centrifuged then incubated for 2 h at rt. The HTRF intensities at the wavelength of donor (615 nm) and acceptor (665 nm) are measured using BMG Pherastar. The ratio between intensities at two wavelengths is calculated and plotted against the compound concentration and the data is fitted to a one-site competition model to yield IC50 of the compound.
On the technique in general: Time-resolved FRET reads energy transfer from a long-lived donor to a nearby acceptor.

Test [2] concerns IL-17A-induced G-CSF production in human normal keratinocyte (NHK). Briefly: NHK assay: IL-17A-induced G-CSF production in normal human keratinocytes. It is filed as cell-based. The conditions noted are these: Homo sapiens, Keratinocyte; IL-17A 5 ng/mL, 24 h at 37° C., G-CSF by HTRF; simple average if tested more than once. As to the method:
IL-17A acts directly on keratinocytes through binding to dimeric receptor IL-17RA/RC and drives the production of a number of inflammatory mediators known to be elevated in psoriasis lesional tissue. IL-17A small molecule inhibitors that block the IL-17A to interact with IL-17R would inhibit the IL-17A signaling in its targeted cells such as keratinocytes. The compound functional activity is evaluated for its impact on IL-17A-induced G-CSF production in human normal keratinocyte (NHK).
Adult normal human keratinocytes are cultured in keratinocyte growth medium (Lonza) in a flask till reaching ˜90% confluence, then cells are transferred to a 384-well plate at density of 3000-4000 cell/well. Recombinant human IL-17A (Gibco PHC9174) is pre-incubated with titrated compound or DMSO for 1 h at rt then added to the cell culture plate. The final concentration of IL-17A is 5 ng/mL and DMSO is 0.2%, in the culture containing 5% FBS. Cells are cultured/treated for 24 h at 37° C. Supernatants are collected and G-CSF production is measured through HTRF technology using Human G-CSF Kit (CisBio). G-CSF concentration was extrapolated from the standard curve and IC50 is determined using GraphPad Prism. Cell viability is also evaluated using CellTiter-Glo kit (Promega) and effect of compound on cell viability is compared to DMSO control.

pIC50: −log10 of the molar value.

Sequence of UniProt Q16552 (Q16552 with tags, fused parts or gaps K93Q): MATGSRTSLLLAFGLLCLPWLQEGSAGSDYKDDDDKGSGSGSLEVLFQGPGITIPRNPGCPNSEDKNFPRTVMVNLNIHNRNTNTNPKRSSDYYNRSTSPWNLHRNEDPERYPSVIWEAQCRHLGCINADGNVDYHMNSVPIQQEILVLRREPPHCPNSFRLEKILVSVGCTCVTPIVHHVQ

For orientation: IC50 means the concentration at which inhibition is half-maximal. A lower IC50 goes with greater potency. Usually pIC50 stands for the negative decadic logarithm of the IC50, by convention in mol/L. `COCC(c1cnn2cc([C@H](COC(C)(C)C(F)(F)F)NC(=O)c3nonc3C)nc2c1)N1C[C@@](C)(C(F)(F)F)NC1=O` (stereo partly drawn) [Example 23] showed a 50% inhibitory concentration (IC50) in test [1] of less than 4 µM. The molecule also showed a pIC50 in test [2] of more than 5.40.
For `CC(C)n1nccc1C(=O)N[C@H](c1cn2ncc([C@@H](COC3CC3)N3C[C@@H](C(F)(F)F)NC3=O)cc2n1)C1CCC(F)(F)CC1` (single isomer, unassigned) [Example 43], in that order: less than 4 µM and more than 5.40.
Turning to `Cc1nonc1C(=O)N[C@@H](COC(C)(C)C(F)(F)F)c1cn2ncc([C@@H](COC3CC3)N3C[C@@H](C(F)(F)F)NC3=O)cc2n1` [Example 45], the IC50 in test [1] is less than 4 µM. The same molecule gave a pIC50 in test [2] of more than 5.40.
The like results for `COC[C@H](c1cnn2cc([C@@H](NC(=O)c3nonc3C)[C@@H](C)O[C@H](C)C(F)(F)F)nc2c1)N1C[C@@H](C(F)(F)F)NC1=O` [Example 27, N-((1R,2R)-1-(7-((S)-2-Methoxy-1-((S)-2-oxo-4-(trifluoromethyl)imidazolidin-1-yl)ethyl)imidazo[1,2-b]pyridazin-2-yl)-2-(((R)-1,1,1-trifluoropropan-2-yl)oxy)propyl)-4-methyl-1,2,5-oxadiazole-3-carboxamide] were, in that order, less than 4 µM and more than 5.40.
For `Cc1nonc1C(=O)N[C@@H](CCC(C)(C)C(F)(F)F)c1cn2ncc(CN3C[C@@](C)(C(F)(F)F)NC3=O)cc2n1` [Example 48, 4-Methyl-N—((S)-5,5,5-trifluoro-4,4-dimethyl-1-(7-(((S)-4-methyl-2-oxo-4-(trifluoromethyl)imidazolidin-1-yl)methyl)imidazo[1,2-b]pyridazin-2-yl)pentyl)-1,2,5-oxadiazole-3-carboxamide], in that order: less than 4 µM and more than 5.40.
The like results for `Cc1nonc1C(=O)N[C@@H](CCC(C)(C)C(F)(F)F)c1cn2ncc(CN3C[C@](C)(C(F)(F)F)NC3=O)cc2n1` [Example 49, 4-Methyl-N—((S)-5,5,5-trifluoro-4,4-dimethyl-1-(7-(((R)-4-methyl-2-oxo-4-(trifluoromethyl)imidazolidin-1-yl)methyl)imidazo[1,2-b]pyridazin-2-yl)pentyl)-1,2,5-oxadiazole-3-carboxamide] were, in that order, less than 4 µM and more than 5.40.
As for `CC(C)n1nccc1C(=O)N[C@H](c1cn2ncc(CN3CC4(CC(F)(F)C4)NC3=O)cc2n1)C1CCC(F)(F)CC1` [Example 46, (S)—N-((7-((2,2-Difluoro-6-oxo-5,7-diazaspiro[3.4]octan-7-yl)methyl)imidazo[1,2-b]pyridazin-2-yl)(4,4-difluorocyclohexyl)methyl)-1-isopropyl-1H-pyrazole-5-carboxamide], in test [1], the IC50 was less than 4 µM. This molecule also gave a pIC50 in test [2] of 5.00 to 5.40.
For `Cc1nonc1C(=O)N[C@@H](CC(C)(C)C(F)(F)F)c1cn2ncc([C@@H](COC3CC3)N3C[C@@H](C(F)(F)F)NC3=O)cc2n1` [Example 37], in that order: less than 4 µM and more than 5.40.
The like results for `COCC[C@H](c1cnn2cc([C@@H](NC(=O)c3nonc3C3CC3)C3CCC(F)(F)CC3)nc2c1)N1C[C@@H](C(F)(F)F)NC1=O` [Example 41, 4-Cyclopropyl-N—((S)—(4,4-difluorocyclohexyl)(7-((R)-3-methoxy-1-((S)-2-oxo-4-(trifluoromethyl)imidazolidin-1-yl)propyl)imidazo[1,2-b]pyridazin-2-yl)methyl)-1,2,5-oxadiazole-3-carboxamide] were, in that order, less than 4 µM and more than 5.40.
For `COC[C@H](c1cnn2cc([C@H](CCC(C)(C)C(F)(F)F)NC(=O)c3nonc3OC)nc2c1)N1C[C@@](C)(C(F)(F)F)NC1=O` [Example 47, 4-Methoxy-N—((S)-5,5,5-trifluoro-1-(7-((S)-2-methoxy-((S)-4-methyl-2-oxo-4-(trifluoromethyl)imidazolidin-1-yl)ethyl)imidazo[1,2-b]pyridazin-2-yl)-4,4-dimethylpentyl)-1,2,5-oxadiazole-3-carboxamide], in that order: less than 4 µM and more than 5.40.
Molecule `COC[C@H](c1cnn2cc([C@@H](NC(=O)c3nonc3C)C3CCC(F)(F)CC3)nc2c1)N1C[C@@H](C(F)F)NC1=O` [Example 26, N—((S)—(4,4-Difluorocyclohexyl)(7-((S)-1-((S)-4-(difluoromethyl)-2-oxoimidazolidin-1-yl)-2-methoxyethyl)imidazo[1,2-b]pyridazin-2-yl)methyl)-4-methyl-1,2,5-oxadiazole-3-carboxamide] had an IC50 in test [1] of less than 4 µM. In test [2], this molecule showed a pIC50 of more than 5.40.
The like results for `COCCC(c1cnn2cc([C@@H](NC(=O)c3nonc3OC)C3CCC(F)(F)CC3)nc2c1)N1C[C@@H](C(F)(F)F)NC1=O` (single isomer, unassigned) [Example 42, N—((S)—(4,4-Difluorocyclohexyl)(7-((R*)-3-methoxy-1-((S)-2-oxo-4-(trifluoromethyl)imidazolidin-1-yl)propyl)imidazo[1,2-b]pyridazin-2-yl)methyl)-4-methoxy-1,2,5-oxadiazole-3-carboxamide] were, in that order, less than 4 µM and more than 5.40.
The like results for `COCCC(c1cnn2cc([C@@H](NC(=O)c3nonc3C)C3CCC(F)(F)CC3)nc2c1)N1C[C@@H](C(F)(F)F)NC1=O` (single isomer, unassigned) [Example 40, N—((S)—(4,4-Difluorocyclohexyl)(7-((R*)-3-methoxy-1-((S)-2-oxo-4-(trifluoromethyl)imidazolidin-1-yl)propyl)imidazo[1,2-b]pyridazin-2-yl)methyl)-4-methyl-1,2,5-oxadiazole-3-carboxamide] were, in that order, less than 4 µM and more than 5.40.
For `COC[C@H](c1cnn2cc([C@@H](NC(=O)c3nonc3C)C3CCC(F)(F)CC3)nc2c1)N1C[C@@H](C2(C#N)CC2)NC1=O` [Example 25, N—((S)-(7-((S)-1-((R)-4-(1-Cyanocyclopropyl)-2-oxoimidazolidin-1-yl)-2-methoxyethyl)imidazo[1,2-b]pyridazin-2-yl)(4,4-difluorocyclohexyl)methyl)-4-methyl-1,2,5-oxadiazole-3-carboxamide], in that order: less than 4 µM and more than 5.40.
`COC[C@H](c1cnn2cc([C@H](CCC(C)(C)C(F)(F)F)NC(=O)c3nonc3C)nc2c1)N1C[C@@](C)(C(F)(F)F)NC1=O` (single isomer, unassigned) [Example 31]: in test [1], the IC50 was less than 4 µM. Besides, in test [2], the negative-log IC50 (pIC50) was more than 5.40.
